Measured values: US10538555B2, “Macrocyclic inhibitors of the PD-1/PD-L1 and CD80(B7-1)/PD-L1 protein/protein interactions” (BRISTOL-MYERS SQUIBB COMPANY, priority 2014, dated 2020)
Where a SMILES comes first, the peptide text is derived from it. Bridges are numbered along the chain shown (N, C = ends). [ ]: non-standard residue; d: D form. ξ: configuration not given here. Trp(1-CH2COOH) = N[C@@H](Cc1cn(CC(=O)O)c2ccccc12)C(=O)O; Phe(3,4,5-F3) = N[C@@H](Cc1cc(F)c(F)c(F)c1)C(=O)O; Phe(3,4-F2) = N[C@@H](Cc1ccc(F)c(F)c1)C(=O)O; NMePhe(4-F) = CN[C@@H](Cc1ccc(F)cc1)C(=O)O; d(cisHyp) = O=C(O)[C@H]1C[C@@H](O)CN1; Hyp = O=C(O)[C@@H]1C[C@@H](O)CN1; NMeF = CN[C@@H](Cc1ccccc1)C(=O)O; dNMeF = CN[C@H](Cc1ccccc1)C(=O)O; dHyp = O=C(O)[C@H]1C[C@H](O)CN1; NMeNle = CCCC[C@H](NC)C(=O)O; dPip = O=C(O)[C@H]1CCCCN1; hSer = N[C@@H](CCO)C(=O)O; NMeA = CN[C@@H](C)C(=O)O; Orn = NCCC[C@H](N)C(=O)O; dNMeA = CN[C@H](C)C(=O)O; Dab = NCC[C@H](N)C(=O)O; Dap = NC[C@H](N)C(=O)O; ξC = NC(CS)C(=O)O

Molecular target: T1, Human PD-L1/PD-1 (Homo sapiens, UniProt Q9NZQ7)
T1 construct: TVMV protease cleavage site (C); made in house; host or cells: HEK293T cells
T1 sequence (Q9NZQ7 with tags, fused parts or gaps): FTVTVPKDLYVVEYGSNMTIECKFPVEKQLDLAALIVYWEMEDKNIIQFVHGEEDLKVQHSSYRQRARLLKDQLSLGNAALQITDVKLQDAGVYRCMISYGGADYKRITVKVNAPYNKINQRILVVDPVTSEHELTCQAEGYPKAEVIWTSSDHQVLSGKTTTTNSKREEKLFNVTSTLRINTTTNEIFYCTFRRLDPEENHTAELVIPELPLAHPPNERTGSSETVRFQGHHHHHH
Test: HTRF Human PD-L1/PD-1 binding assay (PD-1-Ig/PD-L1-His)
Conditions: PD-L1-His 10 nM, PD-1-Ig 20 nM; class symbol; read-out: HTRF Human PD-L1/PD-1 Binding Assay IC50 Range
Method in brief: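 Truncated Fc-fused human PD-1 (aa 25-167) at 20 nM and His-tagged PD-L1 (aa 18-239) at 10 nM final are used, with peptides preincubated 15 min with PD-L1. Detection uses europium-cryptate anti-Ig and APC anti-His antibodies; 665/620 nm ratio.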

IC50 [nM] | Compound
1000 to 10000 | CCCC[C@H]1C(=O)N[C@@H](CC(N)=O)C(=O)N2CCC[C@H]2C(=O)N[C@@H](CO)C(=O)N[C@@H](CCO)C(=O)N2C[C@H](O)C[C@H]2C(=O)N[C@@H](Cc2c[nH]c3ccccc23)C(=O)N[C@@H](CCN)C(=O)N[C@@H](Cc2c[nH]c3ccccc23)C(=O)N(C)[C@@H](C)C(=O)N(C)[C@@H](C)C(=O)N[C@@H](CCCNC(=N)N)C(=O)NC(C(=O)NCC(N)=O)CSCC(=O)N[C@@H](Cc2ccc(O)cc2)C(=O)N1C (stereo partly drawn) [Example 10200] ({CH2CO}-Y[NMeNle]NPS[hSer][Hyp]W[Dab]W[NMeA][NMeA]R[ξC]G-NH2; thioether N-14)
1 to 9.9 | CCCC[C@H]1C(=O)N2C[C@H](O)C[C@@H]2C(=O)N[C@@H](CC(=O)O)C(=O)N[C@@H](C(C)C)C(=O)N(C)[C@@H](Cc2ccccc2)C(=O)N[C@@H](Cc2ccc(O)cc2)C(=O)N2C[C@@H](O)C[C@@H]2C(=O)N[C@@H](Cc2c[nH]c3ccccc23)C(=O)N[C@@H](Cc2ccc(O)cc2)C(=O)N[C@@H](CC(C)C)C(=O)N[C@H](C(=O)NCC(N)=O)CSCC(=O)N[C@@H](Cc2cc(F)c(F)c(F)c2)C(=O)N(C)[C@@H](Cc2ccccc2)C(=O)N1C [Example 9371] ({CH2CO}-[Phe(3,4,5-F3)][NMeF][NMeNle][d(cisHyp)]DV[NMeF]Y[dHyp]WYLCG-NH2; thioether N-13)
10 to 99.9 | CCCC[C@H]1C(=O)N2C[C@H](O)C[C@@H]2C(=O)N[C@@H](CC(=O)O)C(=O)N[C@@H](C(C)C)C(=O)N(C)[C@@H](Cc2ccccc2)C(=O)N[C@@H](CC(=O)O)C(=O)N2C[C@H](O)C[C@@H]2C(=O)N[C@@H](Cc2c[nH]c3ccccc23)C(=O)N[C@@H](Cc2ccc(O)cc2)C(=O)N[C@@H](CC(=O)O)C(=O)N[C@H](C(=O)NCC(N)=O)CSCC(=O)N[C@@H](Cc2cc(F)c(F)c(F)c2)C(=O)N(C)[C@@H](Cc2ccccc2)C(=O)N1C [Example 9350] ({CH2CO}-[Phe(3,4,5-F3)][NMeF][NMeNle][d(cisHyp)]DV[NMeF]D[d(cisHyp)]WYDCG-NH2; thioether N-13)
10 to 99.9 | CC(C)C[C@@H]1NC(=O)[C@H](Cc2ccc(O)cc2)NC(=O)[C@H](Cc2c[nH]c3ccccc23)NC(=O)[C@@H](C)N(C)C(=O)[C@H](Cc2ccc(O)cc2)NC(=O)[C@H](Cc2ccccc2)N(C)C(=O)[C@H](C(C)C)NC(=O)[C@H](CC(N)=O)NC(=O)[C@@H](C)N(C)C(=O)[C@H](C)N(C)C(=O)[C@H](Cc2ccccc2)N(C)C(=O)[C@H](Cc2cc(F)c(F)c(F)c2)NC(=O)CSC[C@@H](C(=O)NCC(N)=O)NC1=O [Example 9190] ({CH2CO}-[Phe(3,4,5-F3)][NMeF][NMeA][dNMeA]NV[NMeF]Y[dNMeA]WYLCG-NH2; thioether N-13)
1 to 9.9 | CCCC[C@H]1C(=O)N(C)[C@@H](CCCC)C(=O)N[C@@H](CCC(=O)O)C(=O)N[C@H](C(=O)NCC(N)=O)CSCC(=O)N[C@@H](Cc2ccc(O)cc2)C(=O)N(C)[C@@H](C)C(=O)N[C@@H](CC(N)=O)C(=O)N2CCC[C@H]2C(=O)N[C@@H](Cc2c[nH]cn2)C(=O)N[C@@H](CCC(N)=O)C(=O)N2C[C@H](O)C[C@H]2C(=O)N[C@@H](Cc2c[nH]c3ccccc23)C(=O)N[C@@H](CCN)C(=O)N[C@@H](Cc2c[nH]c3ccccc23)C(=O)N1C [Example 5223] ({CH2CO}-Y[NMeA]NPHQ[Hyp]W[Dab]W[NMeNle][NMeNle]ECG-NH2; thioether N-14)
1 to 9.9 | CCCC[C@H]1C(=O)N(C)[C@@H](CCCC)C(=O)N[C@@H](CC(C)C)C(=O)N[C@H](C(N)=O)CSCC(=O)N[C@@H](Cc2ccc(O)cc2)C(=O)N(C)[C@@H](C)C(=O)N[C@@H](CC(N)=O)C(=O)N2CCC[C@H]2C(=O)N[C@@H](CN)C(=O)N[C@@H](CC(C)C)C(=O)N2C[C@H](O)C[C@H]2C(=O)N[C@@H](Cc2c[nH]c3ccccc23)C(=O)N[C@@H](CCC(=O)O)C(=O)N[C@@H](Cc2cn(CC(=O)O)c3ccccc23)C(=O)N1C [Example 6203] ({CH2CO}-Y[NMeA]NP[Dap]L[Hyp]WE[Trp(1-CH2COOH)][NMeNle][NMeNle]LC-NH2; thioether N-14)
1000 to 10000 | CCCC[C@H]1C(=O)N[C@@H](CC(N)=O)C(=O)N2CCC[C@H]2C(=O)N[C@@H](CO)C(=O)N[C@@H](CCO)C(=O)N2CCC[C@H]2C(=O)N[C@@H](Cc2c[nH]c3ccccc23)C(=O)N[C@@H](CN)C(=O)N[C@@H](Cc2c[nH]c3ccccc23)C(=O)N(C)[C@@H](C)C(=O)N(C)[C@@H](C)C(=O)N[C@@H](CCCNC(=N)N)C(=O)NC(C(=O)NCC(N)=O)CSCC(=O)N[C@@H](Cc2ccc(O)cc2)C(=O)N1C (stereo partly drawn) [Example 10202] ({CH2CO}-Y[NMeNle]NPS[hSer]PW[Dap]W[NMeA][NMeA]R[ξC]G-NH2; thioether N-14)
1 to 9.9 | CCCC[C@H]1C(=O)N2C[C@H](O)C[C@@H]2C(=O)N[C@@H](CC(=O)O)C(=O)N[C@@H](C(C)C)C(=O)N(C)[C@H](Cc2ccccc2)C(=O)N[C@@H](CCN)C(=O)N2C[C@H](O)C[C@@H]2C(=O)N[C@@H](Cc2c[nH]c3ccccc23)C(=O)N[C@@H](Cc2ccc(O)cc2)C(=O)N[C@@H](CCCN)C(=O)N[C@H](C(=O)NCC(N)=O)CSCC(=O)N[C@@H](Cc2ccc(F)c(F)c2)C(=O)N(C)[C@@H](Cc2ccccc2)C(=O)N1C [Example 9311] ({CH2CO}-[Phe(3,4-F2)][NMeF][NMeNle][d(cisHyp)]DV[dNMeF][Dab][d(cisHyp)]WY[Orn]CG-NH2; thioether N-13)
10 to 99.9 | CCCC[C@H]1C(=O)N(C)[C@@H](CCCC)C(=O)N[C@@H](CCCNC(=N)N)C(=O)N[C@H](C(=O)NCC(N)=O)CSCC(=O)N[C@@H](Cc2ccc(O)cc2)C(=O)N(C)[C@@H](C)C(=O)N[C@@H](CC(N)=O)C(=O)N2CCC[C@H]2C(=O)N[C@@H](Cc2cnc[nH]2)C(=O)N[C@@H](CCCCN)C(=O)N2C[C@H](O)C[C@H]2C(=O)N[C@@H](Cc2c[nH]c3ccccc23)C(=O)N[C@@H](CO)C(=O)N[C@@H](Cc2cn(CC(=O)O)c3ccccc23)C(=O)N1C [Example 6338] ({CH2CO}-Y[NMeA]NPHK[Hyp]WS[Trp(1-CH2COOH)][NMeNle][NMeNle]RCG-NH2; thioether N-14)
1 to 9.9 | CCCC[C@H]1C(=O)N2CCC[C@@H]2C(=O)N[C@@H](CC(=O)O)C(=O)N[C@@H](C(C)C)C(=O)N(C)[C@@H](Cc2ccccc2)C(=O)N[C@@H](CCC(=O)O)C(=O)N2CCCC[C@@H]2C(=O)N[C@@H](Cc2c[nH]c3ccccc23)C(=O)N[C@@H](Cc2ccc(O)cc2)C(=O)N[C@@H](CN)C(=O)N[C@H](C(=O)NCC(N)=O)CSCC(=O)N[C@@H](Cc2cc(F)c(F)c(F)c2)C(=O)N(C)[C@@H](Cc2ccc(F)cc2)C(=O)N1C [Example 10569] ({CH2CO}-[Phe(3,4,5-F3)][NMePhe(4-F)][NMeNle][dP]DV[NMeF]E[dPip]WY[Dap]CG-NH2; thioether N-13)
1 to 9.9 | CCCC[C@H]1C(=O)N(C)[C@@H](CCCC)C(=O)N[C@@H](CN)C(=O)N[C@H](C(=O)NCC(N)=O)CSCC(=O)N[C@@H](Cc2ccc(O)cc2)C(=O)N(C)[C@@H](C)C(=O)N[C@@H](CC(N)=O)C(=O)N2CCC[C@H]2C(=O)N[C@@H](CN)C(=O)N[C@@H](CCC(=O)O)C(=O)N2C[C@H](O)C[C@H]2C(=O)N[C@@H](Cc2c[nH]c3ccccc23)C(=O)N[C@@H](CCN)C(=O)N[C@@H](Cc2cn(CC(=O)O)c3ccccc23)C(=O)N1C [Example 6301] ({CH2CO}-Y[NMeA]NP[Dap]E[Hyp]W[Dab][Trp(1-CH2COOH)][NMeNle][NMeNle][Dap]CG-NH2; thioether N-14)
1 to 9.9 | CCCC[C@H]1C(=O)N(C)[C@@H](CCCC)C(=O)N[C@@H](CC(=O)O)C(=O)N[C@H](C(=O)NCC(N)=O)CSCC(=O)N[C@@H](Cc2ccc(O)cc2)C(=O)N2CCCCC2C(=O)N[C@@H](CC(=O)O)C(=O)N2CCC[C@H]2C(=O)N[C@@H](Cc2c[nH]cn2)C(=O)N[C@@H](CCCN)C(=O)N2C[C@H](O)C[C@H]2C(=O)N[C@@H](Cc2c[nH]c3ccccc23)C(=O)N[C@@H](CCCN)C(=O)N[C@@H](Cc2csc3ccccc23)C(=O)N1C (stereo partly drawn) [Example 1533]
1 to 9.9 | CCCC[C@H]1C(=O)N(C)[C@@H](CCCC)C(=O)N[C@@H](CCCN)C(=O)N[C@H](C(=O)NCC(N)=O)CSCC(=O)N[C@@H](Cc2ccc(OC)cc2)C(=O)N(C)[C@@H](C)C(=O)N[C@@H](CC(=O)O)C(=O)N2CCC[C@H]2C(=O)N[C@@H](Cc2cnc[nH]2)C(=O)N[C@@H](CCC(=O)O)C(=O)N2C[C@H](O)C[C@H]2C(=O)N[C@@H](Cc2c[nH]c3ccccc23)C(=O)N[C@@H](CCN)C(=O)N[C@@H](Cc2c[nH]c3ccccc23)C(=O)N1C [Example 7098] ({CH2CO}-Y(Me)[NMeA]DPHE[Hyp]W[Dab]W[NMeNle][NMeNle][Orn]CG-NH2; thioether N-14)
1 to 9.9 | CCCC[C@H]1C(=O)N(C)[C@@H](CCCC)C(=O)N[C@@H](CC(C)C)C(=O)N[C@H](C(=O)NCC(N)=O)CSCC(=O)N[C@@H](Cc2ccc(O)cc2)C(=O)N(C)[C@@H](C)C(=O)N[C@@H](CC(=O)O)C(=O)N2CCC[C@H]2C(=O)N[C@@H](CN)C(=O)N[C@@H](CC(C)C)C(=O)N2CCC[C@H]2C(=O)N[C@@H](Cc2c[nH]c3ccccc23)C(=O)N[C@@H](CCN)C(=O)N[C@@H](Cc2cn(CC(=O)O)c3ccccc23)C(=O)N1C [Example 6283] ({CH2CO}-Y[NMeA]DP[Dap]LPW[Dab][Trp(1-CH2COOH)][NMeNle][NMeNle]LCG-NH2; thioether N-14)
1 to 9.9 | CCCC[C@H]1C(=O)N2CCC[C@@H]2C(=O)N[C@@H](CC(=O)O)C(=O)N[C@@H](C(C)C)C(=O)N(C)[C@@H](Cc2ccccc2)C(=O)N[C@@H](CC(=O)O)C(=O)N2C[C@H](O)C[C@@H]2C(=O)N[C@@H](Cc2c[nH]c3ccccc23)C(=O)N[C@@H](Cc2ccc(O)cc2)C(=O)N[C@@H](CCCCN)C(=O)N[C@H](C(=O)NCC(N)=O)CSCC(=O)N[C@@H](Cc2cc(F)c(F)c(F)c2)C(=O)N(C)[C@@H](Cc2ccccc2)C(=O)N1C [Example 10174] ({CH2CO}-[Phe(3,4,5-F3)][NMeF][NMeNle][dP]DV[NMeF]D[d(cisHyp)]WYKCG-NH2; thioether N-13)
